Assay results reported in patent US20240024338A1, “CARBIDOPA AND L-DOPA PRODRUGS AND METHODS OF USE” (AbbVie Inc., priority 2016, published 2024).

Key:
[1] = In vitro bioconversion study (skin homogenates), mini-pig; settings: mini-pig skin homogenate 3 mg/mL, prodrug 2.5 μg/mL, 37° C.
[2] = In vitro bioconversion study (blood), human; assay type: in vitro ADME; settings: prodrug 2.5 μg/mL, 37° C.
Description: (§2) The in vitro bioconversion of the L-dopa phosphate prodrugs to L-dopa and the carbidopa phosphate prodrugs to carbidopa was evaluated in several studies. In brief, the L-dopa and carbidopa phosphate prodrugs (2.5 μg/mL) were incubated with tissue homogenate or fractions from rats, mini-pigs, or human, including blood, skin homogenate (3 mg/mL), liver microsomes (1 mg/mL), liver S9 fraction (1 mg/mL), kidney S9 fraction (1 mg/mL), and intestine S9 fractions (1 mg/mL). The reaction mixtures were incubated at 37° C. for 5 to 6 time points within 1 to 2 hours. At the end of each time point, the reaction mixtures were quenched by 2 to 3 volumes of 5% trichloroacetic acid in water. After quenching, the mixtures were centrifuged at 3000 rpm for 20 minutes, and the supernatants were analyzed by LC-MS for quantitation of the prodrug, L-dopa or carbidopa. The in vitro bioconversion was assessed by monitoring both time-dependent depletion of the prodrug and the formation of the corresponding L-dopa or carbidopa.

[3] = In vitro bioconversion study (blood), rat; settings: prodrug 2.5 μg/mL, 37° C.
Description: The in vitro bioconversion of the L-dopa phosphate prodrugs to L-dopa and the carbidopa phosphate prodrugs to carbidopa was evaluated in several studies. […] The reaction mixtures were incubated at 37° C. for 5 to 6 time points within 1 to 2 hours. At the end of each time point, the reaction mixtures were quenched by 2 to 3 volumes of 5% trichloroacetic acid in water. After quenching, the mixtures were centrifuged at 3000 rpm for 20 minutes, and the supernatants were analyzed by LC-MS for quantitation of the prodrug, L-dopa or carbidopa. The in vitro bioconversion was assessed by monitoring both time-dependent depletion of the prodrug and the formation of the corresponding L-dopa or carbidopa.

[4] = 1-Day stability study of prodrugs in aqueous solution; assay type: physicochemical; settings: aqueous solution 80 μg/mL, ambient storage
Description: The L-dopa phosphate prodrugs and the carbidopa phosphate prodrugs were evaluated in a stability study.

[5] = In vitro bioconversion study (skin homogenates), human; settings: human skin homogenate 3 mg/mL, prodrug 2.5 μg/mL, 37° C.
[6] = Phosphate prodrug solubility study in water; assay type: physicochemical; settings: for Solubility: water, ambient, visual assessment; for solubility compared to L-dopa and carbidopa (FIG. 1): pH of 7.4
Description: The L-dopa phosphate prodrugs and the carbidopa phosphate prodrugs were evaluated in a solubility study. The solubility values of the phosphate prodrugs in water under ambient conditions were determined by visual assessment. Table 13-A reports the results of the study, including the measured values for L-dopa and carbidopa.

[7] = In vitro bioconversion study (skin homogenates), rat; settings: rat skin homogenate 3 mg/mL, prodrug 2.5 μg/mL, 37° C.
[8] = In vitro bioconversion study (blood), mini-pig; assay type: in vitro ADME; settings: prodrug 2.5 μg/mL, 37° C.
Description: as §2

[9] = for Bioconversion ratio (prodrug to active drug), Value: projected for human, mean of ratios observed in preclinical animals
[10] = In vitro bioconversion study, human liver microsomes; assay type: in vitro ADME; settings: human liver microsomes 1 mg/mL, prodrug 2.5 μg/mL, 37° C.
Description: as §2

[11] = In vitro bioconversion study (intestinal S9 fractions), rat; assay type: in vitro ADME; settings: rat intestinal S9 fraction 1 mg/mL, prodrug 2.5 μg/mL, 37° C.
Excerpt: (§1) The t1/2 appeared to be shorter in human intestinal S9 than in rat intestinal S9.

[12] = L-dopa 4′-monophosphate/carbidopa 4′-monophosphate 4:1, 16-hour subcutaneous infusion in rats; assay type: in vivo; settings: 4:1, SC bolus 60/14 mg/kg then infusion 300/71 mg/kg
Description: After 1.5 hours, the combination was dosed again via continuous infusion at a dose of 300/71 mg/kg over next 14.5 hours. Blood samples were collected at […], 0.25, 1, 6, 16, and 24 hours post dose. […] FIG. 7 provides a time-concentration profile for L-dopa and L-dopa 4′-monophosphate blood levels after administration of the combination of 4′-monophosphate prodrugs at a 4:1 ratio. […] Steady state concentration of ˜1 μg/mL was maintained over the infusion period for carbidopa. […] FIG. 9 provides a time-concentration profile for carbidopa and carbidopa 4′-monophosphate blood levels after administration of the combination of 4′-monophosphate prodrugs at a 4:1 ratio.

[13] = In vitro bioconversion study, kidney S9 fraction, human; assay type: in vitro ADME; settings: human kidney S9 fraction 1 mg/mL, prodrug 2.5 μg/mL, 37° C.
Description: as §2

[14] = In vitro bioconversion study, kidney S9 fraction, rat; assay type: in vitro ADME; settings: rat kidney S9 fraction 1 mg/mL, prodrug 2.5 μg/mL, 37° C.
Description: as §2

[15] = In vitro bioconversion study, liver S9 fraction, mini-pig; assay type: in vitro ADME; settings: mini-pig liver S9 fraction 1 mg/mL, prodrug 2.5 μg/mL, 37° C.
Description: as §2

[16] = 7-Day stability study, 4′ monophosphate combination solution; assay type: physicochemical; settings: combination solution: L-dopa 4′-monophosphate 200 mg/mL + carbidopa 4′-monophosphate 50 mg/mL, pH 7.4, room temperature
Description: In addition, a solution combining the L-dopa 4′-monophosphate at 200 mg/mL and carbidopa 4′-monophosphate at 50 mg/mL was monitored over 7 days at room temperature. These samples were prepared with and without purging with nitrogen to remove oxygen.

[17] = In vitro bioconversion study, liver S9 fraction, human; assay type: in vitro ADME; settings: human liver S9 fraction 1 mg/mL, prodrug 2.5 μg/mL, 37° C.
Description: as §2

[18] = In vitro bioconversion study (intestinal S9 fractions), human; assay type: in vitro ADME; settings: human intestinal S9 fraction 1 mg/mL, prodrug 2.5 μg/mL, 37° C.
Excerpt: as §1

[19] = In vitro bioconversion study, liver S9 fraction, rat; assay type: in vitro ADME; settings: rat liver S9 fraction 1 mg/mL, prodrug 2.5 μg/mL, 37° C.
Description: as §2

[20] = 15:1 L-dopa 4′-monophosphate/carbidopa 4′-monophosphate 16-hour SC infusion in mini-pigs; settings: 15:1, 48/3.2 mg/kg
Description: In this study, the pig received a 16-hour subcutaneous infusion of a combination of the L-dopa 4′-monophosphate and the carbidopa 4′-monophosphate together in an aqueous solution at a dose ratio of 15:1 without an initial bolus dose. The doses were 48/3.2 mg/kg for L-dopa 4′-monophosphate and the carbidopa 4′-monophosphate, respectively.

[21] = 1-Day stability study, diphosphate combination solution; assay type: physicochemical; settings: combination solution: L-dopa 3′,4′-diphosphate 35 mg/mL + carbidopa 3′,4′-diphosphate 8.7 mg/mL, pH 6.2, room temperature, nitrogen purged
Description: In addition, a solution combining the diphosphates of each compound (L-dopa 3′, 4′-diphosphate at 35 mg/mL and carbidopa 3′, 4′-diphosphate at 8.7 mg/mL) was monitored over one day at room temperature. This sample was purged with nitrogen to remove oxygen.

[22] = listed as 4′-phosphate prodrug of L-dopa
[23] = listed as diphosphate prodrug of carbidopa
[24] = listed as 3′,4′-diphosphate prodrug of carbidopa
[25] = listed as 4′-phosphate prodrug of carbidopa

Row | SMILES | CLp (plasma clearance), Value ([9]; human) [L/h] | L-Dopa or Carbidopa Formation [11] | L-Dopa or Carbidopa Formation [18] | L-Dopa or Carbidopa Formation [1] | T1/2 [1] | L-Dopa or Carbidopa Formation [2] | L-Dopa or Carbidopa Formation [3] | T1/2 [3] [min] | L-Dopa or Carbidopa Formation [5] | T1/2 [5] | L-Dopa or Carbidopa Formation [7] | T1/2 [7] | L-Dopa or Carbidopa Formation [8] | stability and formation of L-dopa or carbidopa [10] | stability and formation of L-dopa or carbidopa [13] | stability and formation of L-dopa or carbidopa [14] | stability and formation of L-dopa or carbidopa [15] | stability and formation of L-dopa or carbidopa [17] | stability and formation of L-dopa or carbidopa [19] | other results
1 | C[C@@](Cc1ccc(O)c(OP(=O)(O)O)c1)(NN)C(=O)O [Carbidopa 3′-phosphate, Carbidopa 3′-monophosphate] |  |  |  | Yes | 413 min | Yes | Yes | 20.5 | Yes | 602 min | Yes | 724 min | Yes |  |  |  |  |  |  | T1/2 [2]: 58 min; % Remaining After One Day ([4]; pH 6.5): >94%; Solubility ([6]; pH 7.1, Amorphous): >96 mg/mL; T1/2 [8]: 8.9 min
2 | N[C@@H](Cc1ccc(O)c(OP(=O)(O)O)c1)C(=O)O [L-dopa 3′-phosphate] |  |  |  | Yes | 885 min | Yes | Yes | 20.6 | Yes | 673 min | Yes | 737 min | Yes | stable without formation of L-dopa or carbidopa observed |  |  |  |  |  | T1/2 [2]: 28 min; % Remaining After One Day ([4]; pH 7.0): >99%; Solubility ([6]; pH 7.0, Crystalline): >161 mg/mL; T1/2 [8]: 8.8 min
3 | N[C@@H](Cc1ccc(OP(=O)(O)O)c(O)c1)C(=O)O [L-dopa 4′-phosphate, (S)-2-amino-3-(3-hydroxy-4-(phosphonooxy)phenyl)propanoic acid] | 100 | Yes | Yes | Yes |  |  | Yes |  | Yes |  |  |  |  |  | stable without formation of L-dopa or carbidopa observed | stable without formation of L-dopa or carbidopa observed | stable without formation of L-dopa or carbidopa observed | stable without formation of L-dopa or carbidopa observed | stable without formation of L-dopa or carbidopa observed | T1/2 [11, 22]: rapidly dephosphorylated; exposure of remaining L-dopa 4′-monophosphate as % of levodopa [12]: ~22%; % Remaining After One Day ([4]; pH 7.0): >99%; SC F (subcutaneous bioavailability), Value ([9]; human): 0.75; Bioconversion ratio (prodrug to active drug), Value [9]: 0.9; % Remaining After 7 Days ([16]; Nitrogen Purged): >99%; % Remaining After 7 Days ([16]; Non-Purged): >99%; T1/2 [18, 22]: rapidly dephosphorylated; solubility compared to L-dopa and carbidopa (FIG. 1) [6]: increased solubility; exposure of remaining L-dopa 4′-monophosphate as % of the levodopa exposure [20]: ~10%
4 | C[C@@](Cc1ccc(OP(=O)(O)O)c(OP(=O)(O)O)c1)(NN)C(=O)O [Carbidopa 3′,4′-diphosphate] |  | Yes | Yes | No | stable | No | Yes | 53 | No | stable | No | stable | No | stable without formation of L-dopa or carbidopa observed | stable without formation of L-dopa or carbidopa observed | stable without formation of L-dopa or carbidopa observed | stable without formation of L-dopa or carbidopa observed | stable without formation of L-dopa or carbidopa observed | stable without formation of L-dopa or carbidopa observed | T1/2 [11, 23]: rapidly dephosphorylated; T1/2 [2, 24]: stable; T1/2 [2, 23]: not dephosphorylated; % Remaining After One Day ([4]; pH 6.8): >97%; T1/2 [18, 23]: rapidly dephosphorylated; Solubility ([6]; pH 5.5, Amorphous): >247 mg/mL; % Remaining After One Day [21]: >99%; T1/2 [8, 24]: stable; T1/2 [8, 23]: not dephosphorylated

Second part, led by results:

Row | CLp (plasma clearance), Value ([9]; human) [L/h] | L-Dopa or Carbidopa Formation [11] | L-Dopa or Carbidopa Formation [18] | SMILES | L-Dopa or Carbidopa Formation [1] | T1/2 [1] | L-Dopa or Carbidopa Formation [2] | L-Dopa or Carbidopa Formation [3] | T1/2 [3] [min] | L-Dopa or Carbidopa Formation [5] | T1/2 [5] | L-Dopa or Carbidopa Formation [7] | T1/2 [7] | L-Dopa or Carbidopa Formation [8] | stability and formation of L-dopa or carbidopa [10] | stability and formation of L-dopa or carbidopa [13] | stability and formation of L-dopa or carbidopa [14] | stability and formation of L-dopa or carbidopa [15] | stability and formation of L-dopa or carbidopa [17] | stability and formation of L-dopa or carbidopa [19] | other results
5 | 18 |  |  | C[C@@](Cc1ccc(O)c(O)c1)(NN)C(=O)O [Carbidopa, (2S)-3-(3,4-dihydroxyphenyl)-2-hydrazino-2-methylpropanoic acid] |  |  |  |  |  |  |  |  |  |  |  |  |  |  |  |  | 
6 | 141 | Yes | Yes | C[C@@](Cc1ccc(OP(=O)(O)O)c(O)c1)(NN)C(=O)O [Carbidopa 4′-phosphate, Carbidopa 4′-monophosphate] | Yes |  |  | Yes |  | Yes |  |  |  |  | stable without formation of L-dopa or carbidopa observed | stable without formation of L-dopa or carbidopa observed | stable without formation of L-dopa or carbidopa observed | stable without formation of L-dopa or carbidopa observed | stable without formation of L-dopa or carbidopa observed | stable without formation of L-dopa or carbidopa observed | T1/2 [11, 25]: rapidly dephosphorylated; exposure of remaining carbidopa 4′-monophosphate as % of carbidopa [12]: ~8%; % Remaining After One Day ([4]; pH 6.8): >98%; SC F (subcutaneous bioavailability), Value ([9]; human): 0.65; Bioconversion ratio (prodrug to active drug), Value [9]: 0.7; % Remaining After 7 Days ([16]; Nitrogen Purged): >99%; % Remaining After 7 Days ([16]; Non-Purged): >97%; T1/2 [18, 25]: rapidly dephosphorylated; solubility compared to L-dopa and carbidopa (FIG. 1) [6]: increased solubility; exposure of remaining carbidopa 4′-monophosphate as % of the carbidopa exposure [20]: ~22%
7 | 24 |  |  | N[C@@H](Cc1ccc(O)c(O)c1)C(=O)O [L-dopa, L-3,4-dihydroxyphenylalanine] |  |  |  |  |  |  |  |  |  |  |  |  |  |  |  |  | CLp Levodopa ([9]; human): 24 L/h
